Assay results from patent publication US20190225650A1, “PEPTIDOMIMETIC MACROCYCLES AND USE THEREOF IN REGULATING HIF1ALPHA” (AILERON THERAPEUTICS, INC., priority 2013, published 2019).
Bridge positions count the residues as written; N and C are the ends. Square brackets hold non-standard residues; d marks the D form. Peptide text beside a SMILES is read from it. S5 = C=CCCC[C@](C)(N)C(=O)O; Nle = CCCC[C@H](N)C(=O)O

Assays:
[1] = target: T1, flag-tagged HIF1α (AA 786-826) / His6-tagged p300 (AA 323-423) complex (Homo sapiens, UniProt Q09472); assay: HIF1α p300 displacement assay (TR FRET, +CHAPS); type: binding; conditions: read-out: IC50 (nM) (HIF1α_p300 Displacement + CHAPS)
T1 construct: His6-tagged p300 (AA 323-423); made in house; host or cells: E. coli (pETDuet vector)
Procedure, shortened: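 In this TR-FRET displacement format, peptides compete HIF1α C-terminal transactivation domain off p300-CH. They were preincubated 1 h at room temperature with 300 nM complex in HEPES pH 7.4/NaCl buffer with 7.5 mM CHAPS and 1 mM DTT. Anti-His-D2 (4 nM) and anti-Flag-K (0.5 μM) followed for 2 h, and a one-site fit of the fluorescence ratio gave IC50.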

HRE-bla ME-180 cells [2] = assay: Reporter gene assay (HRE-bla ME-180 HIF reporter, GeneBLAzer); type: cell-based, human; conditions: for EC50: 24 hour normoxia
Procedure, shortened: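 A FRET β-lactamase readout of HIF transcription was used. After compound treatment in 0.3% DMSO/media under normoxic conditions, 20 μl of 6× LiveBLAzer-FRET B/G (CCF4-AM) substrate was added. Plates sat 3 hr at room temperature in the dark and were read at 409 Ex/460Em and 409Ex/530Em on a Synergy 2. Inhibition was compared against DMSO vehicle controls, with chetomin as positive control.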

HRE-bla ME-180 cells [3] = assay: Cell proliferation assay (viability, MTT, 1% FBS); type: cell-based, human
Procedure, shortened: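 Viable cell number was measured with the CellTiter 96 (MTT) kit after compounds were applied for a 16 h normoxic (21% O2) pretreatment, followed by further normoxic or hypoxic (1% O2) culture. Cells: 2×10^4 ME-180 per well, Opti-MEM + 1% FBS, 0.5% DMSO vehicle.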

IC50 [1]	EC50 (HRE-bla ME-180 cells [2])	SMILES	18 h Avg % max inhibition at top conc (HIF Rptr-24 hrs normoxia) (μM) (HRE-bla ME-180 cells [2])	Viability 1% FBS AVG (MTT V3-24 hr Normoxia) (μM) (HRE-bla ME-180 cells [3])
≤ 200 nM	15 to 30 µM	CCCC[C@@H]1NC(=O)[C@H](CC(C)C)NC(=O)[C@H](C(C)C)NC(=O)[C@@](C)(NC(=O)[C@H](CCC(=O)O)NC(=O)[C@H](CC(=O)O)NC(=O)[C@@H](NC(=O)[C@H](Cc2ccccc2)NC(C)=O)[C@@H](C)CC)CCCC=CCCC[C@@](C)(C(=O)N[C@@H](CC(C)C)C(=O)N[C@H](C(=O)N[C@H](C(=O)N[C@@H](CCC(=O)O)C(=O)N[C@@H](CCSC)C(=O)N[C@@H](C)C(=O)N[C@@H](CC(C)C)C(=O)N[C@@H](CC(=O)O)C(=O)N[C@@H](CCCNC(=N)N)C(=O)N[C@H](C(N)=O)[C@@H](C)CC)[C@@H](C)CC)C(C)C)NC1=O [SP-118] (Ac-FIDE[S5]VL[Nle][S5]LVIEMALDRI-NH2; staple 5-9)	+++ (≤25 but <50: +++)	++++ (≥30: ++++)
200 to 400 nM	> 30 µM	CCCC[C@H](NC(=O)[C@H](CCC(=O)O)NC(=O)[C@@H](NC(=O)[C@@H](NC(=O)[C@H](CC(C)C)NC(=O)[C@]1(C)CCCC=CCCC[C@](C)(NC(=O)[C@H](CCC(=O)O)NC(=O)[C@H](CC(=O)O)NC(=O)[C@@H](NC(=O)[C@H](Cc2ccccc2)NC(=O)[C@H](CCCCN)NC(C)=O)[C@@H](C)CC)C(=O)N[C@@H](C(C)C)C(=O)N[C@@H](CC(C)C)C(=O)N[C@@H](CCCC)C(=O)N1)C(C)C)[C@@H](C)CC)C(=O)N[C@@H](C)C(=O)N[C@@H](CC(C)C)C(N)=O [SP-134] (Ac-KFIDE[S5]VL[Nle][S5]LVIE[Nle]AL-NH2; staple 6-10)	+++ (≤25 but <50: +++)	++++ (≥30: ++++)
200 to 400 nM	> 30 µM	CCCC[C@H](NC(=O)[C@H](CCC(=O)O)NC(=O)[C@@H](NC(=O)[C@@H](NC(=O)[C@H](CC(C)C)NC(=O)[C@]1(C)CCCC=CCCC[C@](C)(NC(=O)[C@H](CCC(=O)O)NC(=O)[C@H](CC(=O)O)NC(=O)[C@@H](NC(=O)[C@H](Cc2ccccc2)NC(C)=O)[C@@H](C)CC)C(=O)N[C@@H](C)C(=O)N[C@@H](CC(C)C)C(=O)N[C@@H](CCCC)C(=O)N1)C(C)C)[C@@H](C)CC)C(=O)N[C@@H](C)C(=O)N[C@@H](CC(C)C)C(N)=O [SP-138] (Ac-FIDE[S5]AL[Nle][S5]LVIE[Nle]AL-NH2; staple 5-9)	+++ (≤25 but <50: +++)	++++ (≥30: ++++)
400 to 700 nM	> 30 µM	CCCC[C@H](NC(=O)[C@H](CCC(=O)O)NC(=O)[C@@H](NC(=O)[C@@H](NC(=O)[C@H](CC(C)C)NC(=O)[C@]1(C)CCCC=CCCC[C@](C)(NC(=O)[C@H](CCC(=O)O)NC(=O)[C@H](CC(=O)O)NC(=O)[C@@H](NC(=O)[C@H](Cc2ccccc2)NC(C)=O)[C@@H](C)CC)C(=O)N[C@@H]([C@@H](C)O)C(=O)N[C@@H](CC(C)C)C(=O)N[C@@H](CCCC)C(=O)N1)C(C)C)[C@@H](C)CC)C(=O)N[C@@H](C)C(=O)N[C@@H](CC(C)C)C(N)=O [SP-139] (Ac-FIDE[S5]TL[Nle][S5]LVIE[Nle]AL-NH2; staple 5-9)	+++ (≤25 but <50: +++)	++ (≤5 but <15: ++)
400 to 700 nM	15 to 30 µM	CCCC[C@H](NC(=O)[C@H](CCC(=O)O)NC(=O)[C@@H](NC(=O)[C@@H](NC(=O)[C@H](CC(C)C)NC(=O)[C@]1(C)CCCC=CCCC[C@](C)(NC(=O)[C@H](CCC(=O)O)NC(=O)[C@H](CC(=O)O)NC(=O)[C@@H](NC(=O)[C@H](Cc2ccccc2)NC(C)=O)[C@@H](C)CC)C(=O)N[C@@H](CC(N)=O)C(=O)N[C@@H](CC(C)C)C(=O)N[C@@H](CCCC)C(=O)N1)C(C)C)[C@@H](C)CC)C(=O)N[C@@H](C)C(=O)N[C@@H](CC(C)C)C(N)=O [SP-141] (Ac-FIDE[S5]NL[Nle][S5]LVIE[Nle]AL-NH2; staple 5-9)	++++ (≥50: ++++)	++ (≤5 but <15: ++)
400 to 700 nM	> 30 µM	CCCC[C@H](NC(=O)[C@H](CCC(=O)O)NC(=O)[C@@H](NC(=O)[C@@H](NC(=O)[C@H](C)NC(=O)[C@]1(C)CCCC=CCCC[C@](C)(NC(=O)[C@H](CCC(=O)O)NC(=O)[C@H](CC(=O)O)NC(=O)[C@@H](NC(=O)[C@H](Cc2ccccc2)NC(C)=O)[C@@H](C)CC)C(=O)N[C@@H](C(C)C)C(=O)N[C@@H](CC(C)C)C(=O)N[C@@H](CCCC)C(=O)N1)C(C)C)[C@@H](C)CC)C(=O)N[C@@H](C)C(=O)N[C@@H](CC(C)C)C(N)=O [SP-142] (Ac-FIDE[S5]VL[Nle][S5]AVIE[Nle]AL-NH2; staple 5-9)	+++ (≤25 but <50: +++)	++++ (≥30: ++++)
400 to 700 nM	5 to 15 µM	CCCC[C@H](NC(=O)[C@H](CCC(=O)O)NC(=O)[C@@H](NC(=O)[C@@H](NC(=O)[C@H](CC(N)=O)NC(=O)[C@]1(C)CCCC=CCCC[C@](C)(NC(=O)[C@H](CCC(=O)O)NC(=O)[C@H](CC(=O)O)NC(=O)[C@@H](NC(=O)[C@H](Cc2ccccc2)NC(C)=O)[C@@H](C)CC)C(=O)N[C@@H](C(C)C)C(=O)N[C@@H](CC(C)C)C(=O)N[C@@H](CCCC)C(=O)N1)C(C)C)[C@@H](C)CC)C(=O)N[C@@H](C)C(=O)N[C@@H](CC(C)C)C(N)=O [SP-143] (Ac-FIDE[S5]VL[Nle][S5]NVIE[Nle]AL-NH2; staple 5-9)	++++ (≥50: ++++)	++ (≤5 but <15: ++)
400 to 700 nM	> 30 µM	CCCC[C@H](NC(=O)[C@H](CCC(=O)O)NC(=O)[C@@H](NC(=O)[C@@H](NC(=O)[C@H](CO)NC(=O)[C@]1(C)CCCC=CCCC[C@](C)(NC(=O)[C@H](CCC(=O)O)NC(=O)[C@H](CC(=O)O)NC(=O)[C@@H](NC(=O)[C@H](Cc2ccccc2)NC(C)=O)[C@@H](C)CC)C(=O)N[C@@H](C(C)C)C(=O)N[C@@H](CC(C)C)C(=O)N[C@@H](CCCC)C(=O)N1)C(C)C)[C@@H](C)CC)C(=O)N[C@@H](C)C(=O)N[C@@H](CC(C)C)C(N)=O [SP-144] (Ac-FIDE[S5]VL[Nle][S5]SVIE[Nle]AL-NH2; staple 5-9)	++++ (≥50: ++++)	+++ (≤15 but <30: +++)
> 700 nM	> 30 µM	CCCC[C@@H]1NC(=O)[C@H](CC(C)C)NC(=O)[C@H](C(C)C)NC(=O)[C@@](C)(NC(=O)[C@H](CCC(=O)O)NC(=O)[C@H](CC(=O)O)NC(=O)[C@@H](NC(=O)[C@H](Cc2ccccc2)NC(C)=O)[C@@H](C)CC)CCCC=CCCC[C@@](C)(C(=O)N[C@@H](CC(C)C)C(=O)N[C@H](C(=O)N[C@H](C(=O)N[C@@H](CCC(=O)O)C(=O)N[C@@H](CCC(N)=O)C(=O)N[C@@H](C)C(=O)N[C@@H](CC(C)C)C(N)=O)[C@@H](C)CC)C(C)C)NC1=O [SP-146] (Ac-FIDE[S5]VL[Nle][S5]LVIEQAL-NH2; staple 5-9)	+++ (≤25 but <50: +++)	++++ (≥30: ++++)
> 700 nM	15 to 30 µM	CCCC[C@@H]1NC(=O)[C@H](CC(C)C)NC(=O)[C@H](C(C)C)NC(=O)[C@@](C)(NC(=O)[C@H](CCC(=O)O)NC(=O)[C@H](CC(=O)O)NC(=O)[C@@H](NC(=O)[C@H](Cc2ccccc2)NC(C)=O)[C@@H](C)CC)CCCC=CCCC[C@@](C)(C(=O)N[C@@H](CC(C)C)C(=O)N[C@H](C(=O)N[C@H](C(=O)N[C@@H](CCC(=O)O)C(=O)N[C@@H](CO)C(=O)N[C@@H](C)C(=O)N[C@@H](CC(C)C)C(N)=O)[C@@H](C)CC)C(C)C)NC1=O [SP-147] (Ac-FIDE[S5]VL[Nle][S5]LVIESAL-NH2; staple 5-9)	+++ (≤25 but <50: +++)	++++ (≥30: ++++)
> 700 nM	> 30 µM	CCCC[C@H](NC(=O)[C@H](CCC(=O)O)NC(=O)[C@@H](NC(=O)[C@@H](NC(=O)[C@H](CC(C)C)NC(=O)[C@]1(C)CCCC=CCCC[C@](C)(NC(=O)[C@H](C)NC(=O)[C@H](CC(=O)O)NC(=O)[C@@H](NC(=O)[C@H](Cc2ccccc2)NC(C)=O)[C@@H](C)CC)C(=O)N[C@@H](C(C)C)C(=O)N[C@@H](CC(C)C)C(=O)N[C@@H](CCCC)C(=O)N1)C(C)C)[C@@H](C)CC)C(=O)N[C@@H](C)C(=O)N[C@@H](CC(C)C)C(N)=O [SP-148] (Ac-FIDA[S5]VL[Nle][S5]LVIE[Nle]AL-NH2; staple 5-9)	+++ (≤25 but <50: +++)	++++ (≥30: ++++)
